Measured values reported in US20150157584A1, “INHIBITORS OF HIPPO-YAP SIGNALING PATHWAY” (The Regents of the University of California, priority 2012, published 2015).
Where two headings read alike, the source gives them in different places. Residues, ends and D or L forms follow the SMILES beside them. *: point of attachment. Cbz = O=C(OCc1ccccc1)*

Columns and labels:
[1] = tested on: YAP/TAZ; assay: immunoblotting / phos-tag gels of YAP/TAZ phosphorylation in cultured cell lines; assay type: cell-based, human; details: for YAP phosphorylation by PDE inhibitors: ibudilast 100 μM, IBMX 100 μM, rolipram 50 μM, theophylline 1 mM, 1 hr; for YAP dephosphorylation, different doses: different doses of LPA, S1P, LPC or PA for 1 h; for YAP/TAZ activation by growth factors: EGF 50 ng/ml, PDGF 50 ng/ml, insulin 200 nM, FGF 10 ng/ml; for YAP/TAZ phosphorylation by BSA preparations: serum-starved HEK293A, 1 or 10 mg/ml BSA
Procedure: Immunoblotting was performed using standard protocol. […] The phos-tag reagents were purchased from Wako Chemicals, and gels containing phos-tag were prepared according to manufacture's instructions. YAP proteins can be separated into multiple bands in the presence of phos-tag depending on differential phosphorylation levels, with phosphorylated proteins run migrate slower.
(§1) Immunoblotting was performed using standard protocol. Antibodies for pYAP (S127), YAP, TAZ (V386), pCREB, CREB, pMLC2 (S19), pMLC2 (T18/S19), MST1, MST2, and Lats1 were from Cell Signaling Technology. Lats2 antibody was from Bethyl laboratories. HA-HRP, GFP, and MLC2 antibodies were from Santa Cruz biotechnology. Tubulin, HSP90 and Flag-HRP were purchased from Sigma Aldrich. PKA antibody was obtained from BD biosciences. GAPDH antibody was a gift from Dr. Yan Luo. Yki antibody was a gift from Dr. Kenneth Irvine. The phos-tag reagents were purchased from Wako Chemicals, and gels containing phos-tag and MnC12 were prepared according to manufacturer's instructions. YAP proteins can be separated into multiple bands on phos-tag gels, with the phosphorylated form of YAP proteins migrating at a slower speed.

[2] = tested on: YAP/TAZ; assay: immunoblotting of YAP/TAZ phosphorylation in mouse cells (primary hepatocytes, 3T3-L1); assay type: cell-based
Procedure: (§2) Immunoblotting was performed using standard protocol. Antibodies for pYAP (S127), pYAP(S381/384), pMST1/2, TAZ, pERK, ERK1/2, Lats1, MST1, pAKT (S473), pS6K, S6K were from Cell Signaling, antibodies for YAP (H-125), CTGF, Cyr61, Gq/11, G13 and 14-3-3θ were from Santa Cruz, TEAD1 antibody was from BD biosciences, pTAZ (S89) antibody was in-house raised, GAPDH antibody was a gift from Dr. Yan Luo. The phos-tag reagents were purchased from Wako Chemicals, and gels containing phos-tag were prepared according to manufacture's instructions. YAP proteins can be separated into multiple bands in the presence of phos-tag depending on differential phosphorylation levels, with phosphorylated proteins run migrate slower.
as §1

[3] = tested on: 3T3-L1 cells; assay: adipogenesis of 3T3-L1 cells (oil red staining); assay type: cell-based, mouse; details: 3T3-L1 with insulin, dexamethasone, troglitazone; IBMX 250 μM; KT5720 5 μM
Procedure: Adipogenesis. Murine 3T3-L1 cells were maintained in DMEM medium containing 10% calf serum (Hyclone). To initiate adipocyte differentiation, confluent 3T3-L1 cells switched into FBS containing DMEM medium; in addition, insulin, dexamethasone, troglitazone (Tro) were added; in selected samples, IBMX (250 μM) or forskolin (100 μM) were used to increase cAMP and PKA activity. For experiments using KT5720, 3T3-L1 cells were pre-treated with KT5720 (5 μM) overnight in advance and fresh KT5720 was added when adipogenesis was initiated. Two days later, medium was changed into DMEM containing 10% FBS and insulin. And after another two days, cells were incubated in DMEM with FBS. Cells were typically harvested on day 6 depending on the formation and maturation of lipid droplets. Cells were then subjected to RNA extraction or oil red (Sigma Aldrich) staining according to manufacturer's instructions.

[4] = tested on: Lats1; assay: Lats1 immunoprecipitation kinase assay with GST-YAP substrate; assay type: cell-based, human; details: HEK293A; Ki16425 10 μM 30 min; C3 2 μg/ml 4 h
Procedure: Lats1 or HA-Lats2 kinase assays were performed similarly but using GST-YAP as substrates in the absence of [γ-^32P] ATP. The phosphorylation of GST-YAP at S127 was determined by immunoblotting using pYAP antibody.
Cells were lysed using mild lysis buffer (50 mM HEPES at pH 7.5, 150 mM NaCl, 1 mM EDTA, 1% NP-40, 10 mM pyrophosphate, 10 mM glycerophosphate, 50 mM NaF, 1.5 mM Na3VO4, protease inhibitor cocktail [Roche], 1 mM PMSF). Cell lysates were cleared and used for immunoprecipitation. Lats1 antibody (Cell Signaling Technology) was mixed with cell lysates for 1 hr at 4° C., and then protein A agarose beads were added in for 1 hr. After four washes with lysis buffer, beads were washed once with wash buffer (40 mM HEPES, 200 mM NaCl) and once with kinase assay buffer (30 mM HEPES, 50 mM potassium acetate, 5 mM MgCl2). The immunoprecipitated Lats1 was then subjected to a kinase assay in the presence of 500 μM cold ATP, 10 μCi [γ-32P] ATP, and 1 μg of GST-YAP expressed and purified from Escherichia coli as substrate. The reaction mixtures were incubated for 30 min at 30° C., terminated with SDS sample buffer, and subjected to SDS-PAGE and immunoblotting.

[5] = tested on: YAP; assay type: cell-based, human
[6] = tested on: CTGF; assay: expression of YAP/TAZ target gene CTGF; assay type: cell-based, human; details: HEK293A
Procedure: as §2
Following various treatments, cells were washed with cold phosphate-buffered saline and subjected to RNA extraction using an RNeasy Plus mini kit (Qiagen). […] Complementary DNA was then diluted and used for quantification (with β-actin gene as a control) by real-time PCR, which was performed using KAPA SYBR FAST qPCR master mix (Kapa Biosystems) and the 7300 real-time PCR system (Applied Biosystems). […]
RNA extraction, reverse transcription and real-time PCR. […] After dilution, cDNA levels were quantified by real-time PCR using KAPA SYBR FAST qPCR master mix (Kapa Biosystems) and the 7300 real-time PCR system (Applied Biosystems). […]

[7] = 3T3-L1, 10 μM forskolin, 100 μM IBMX or 5 μM KT5720, 1 hr
[8] = HEK293A pre-treated 30 min (1 μM Torin1, 10 μM U0126, 10 μM SB253580, 10 nM wortmannin), then 10% FBS 1 h

Oc1cc2c(cc1O)[C@H]1c3ccccc3CN[C@@H]1CC2 (racemic) [Dihydrexidine]
YAP phosphorylation ([1]; U2OS cells, 10 μM, 1 h): strong increase

CO[C@@H]1[C@@H]2OP(=O)(O)OC[C@H]2O[C@H]1n1c(Sc2ccc(Cl)cc2)nc2c(N)ncnc21 [8-CPT-2′-O-Me-cAMP]
YAP phosphorylation by PKA or Epac selective activators ([1]; HEK293A, 1 h): less dramatic

CC(C)Cn1c(=O)n(C)c(=O)c2[nH]cnc21 [IBMX]
TAZ protein level [2, 7]: decreased
YAP phosphorylation [2, 7]: induced
adipogenesis [3]: induced
YAP phosphorylation by PDE inhibitors ([1]; MDA-MB-231): induced YAP phosphorylation

CCCCCCOC(=O)[C@]1(O)C[C@@H]2O[C@@]1(C)n1c3ccccc3c3c4c(c5c6ccccc6n2c5c31)C(=O)NC4 [KT5720]
TAZ protein level [2, 7]: increased
YAP phosphorylation [2, 7]: repressed
effect on glucagon-induced YAP phosphorylation ([2]; primary hepatocytes isolated from mice, KT5720): abolished
adipogenesis [3]: inhibited
YAP phosphorylation ([1]; MDA-MB-231, KT5720 5 μM): decreased
effect on forskolin- and epinephrine-induced YAP phosphorylation ([1]; MDA-MB-231, KT5720 5 μM 30 min, then 10 μM epinephrine or forskolin 1 hr): largely blocked

Cc1noc(-c2ccc(CSCCC(=O)O)cc2)c1NC(=O)OC(C)c1ccccc1Cl (stereo not drawn) [Ki16425]
effect on Lats1 inhibition by LPA, S1P, and serum [4]: effectively blocked
effect on LPA-induced dephosphorylation of YAP/TAZ ([1]; HEK293A, Ki16425 10 μM, 30 min): blocked
effect on S1P-induced dephosphorylation of YAP/TAZ ([1]; HEK293A, Ki16425 10 μM, 30 min): not
effect on the ability of serum to repress YAP/TAZ phosphorylation ([1]; HEK293A, Ki16425 10 μM, particularly at 0.2% serum): partially inhibited

CC(C)C[C@@H](C=O)NC(=O)[C@H](CC(C)C)NC(=O)[C@H](CC(C)C)NC(=O)OCc1ccccc1 [MG132] (Cbz-Leu-Leu-Leu-aldehyde)
YAP protein levels under various doses of C108 with proteasome inhibitor [5]: mostly maintained

CCCCCCCCCCCCC/C=C/[C@@H](O)[C@@H](N)COP(=O)(O)O [S1P, sphingosine 1-phosphate]
expression of CTGF [6]: induced
YAP/TAZ dephosphorylation, time course ([1]; HEK293A, 1 μM for indicated times): potently induced YAP/TAZ dephosphorylation
YAP dephosphorylation, different doses ([1]; HEK293A): potently induced

C[S+]([O-])c1ccc(-c2nc(-c3ccc(F)cc3)c(-c3ccncc3)[nH]2)cc1 (stereo not drawn) [SB253580]
effect on the ability of FBS to dephosphorylate YAP/TAZ [1, 8]: no effect

N#CC(=C(/N)Sc1ccccc1N)/C(C#N)=C(\N)Sc1ccccc1N [U0126]
effect on the ability of FBS to dephosphorylate YAP/TAZ [1]: no effect

O=C(Nc1ncnc2c1ncn2[C@@H]1O[C@@H]2COP(=O)(O)O[C@H]2[C@H]1O)c1ccccc1 [b-Bnz-cAMP]
YAP phosphorylation by PKA or Epac selective activators ([1]; HEK293A, 1 h): dramatically increased

C/C1=C/C(=O)O[C@@H]2C[C@@H](CC[C@H](C)/C=C\CC1)O[C@@](O)([C@@H]1CSC(=O)N1)C2 [latrunculin B]
effect on the effects of LPA or S1P on YAP ([1]; HEK293A 1 μg/ml LatB 30 min, MCF10A localization): blocked

COc1ccc(C2CNC(=O)C2)cc1OC1CCCC1 (stereo not drawn) [rolipram]
YAP phosphorylation by PDE inhibitors ([1]; MDA-MB-231): induced YAP phosphorylation

Cn1c(=O)c2[nH]cnc2n(C)c1=O [theophylline]
YAP phosphorylation by PDE inhibitors ([1]; MDA-MB-231): induced YAP phosphorylation

CCC(=O)N1CCN(c2ccc(-n3c(=O)ccc4cnc5ccc(-c6cnc7ccccc7c6)cc5c43)cc2C(F)(F)F)CC1 [torin]
effect on the ability of FBS to dephosphorylate YAP/TAZ [1, 8]: no effect

COC[C@H]1OC(=O)c2coc3c2[C@@]1(C)C1=C(C3=O)[C@@H]2CCC(=O)[C@@]2(C)C[C@H]1OC(C)=O [wortmannin]
effect on the ability of FBS to dephosphorylate YAP/TAZ [1, 8]: no effect

EGF: growth factor tested
YAP/TAZ activation by growth factors ([1]; HEK293A): not involved

Fraction V BSA: BSA prepared by ethanol precipitation
YAP/TAZ phosphorylation by BSA preparations ([1]; 1 h): no activity

PDGF
YAP/TAZ activation by growth factors ([1]; HEK293A): not involved

fatty acid-free BSA: fatty acid-free BSA preparation
YAP/TAZ phosphorylation by BSA preparations ([1]; 1 h): no activity

glucagon: ligand known to activate PKA
YAP phosphorylation ([2]; primary hepatocytes isolated from mice, glucagon): increased
YAP phosphorylation ([2]; primary mouse hepatocytes, 2 μM glucagon, 1 h): increased

insulin: growth factor tested
YAP/TAZ activation by growth factors ([1]; HEK293A): not involved

phosphatidic acid [PA]
dephosphorylation of YAP/TAZ by phospholipids ([1]; HEK293A, 100 μM lipid): strongly induced dephosphorylation
concentration needed to induce YAP dephosphorylation ([1]; HEK293A, 1 h): 100 µM
YAP dephosphorylation, different doses ([1]; HEK293A): much higher concentrations
potency relative to LPA (times less potent) ([1]; YAP dephosphorylation, HEK293A): 1,000 times
